Consider 3 compounds from US10228378B2, “Diagnostic and therapeutic methods and products related to anxiety disorders” (The University of Vermont and State Agricultural College, priority 2011, dated 2019).

One series concerns ADCYAP1 transcripts. Description: Quantitative PCR of ADCYAP1 transcripts in BNST of ovarectomized female rats after estradiol implants. To be noted: OVX female rats, 21-day continuous release pellets, vs control implants. It counts as in vivo, rat. The source says:
(§1) To establish the relationship between PACAP/PAC1 receptors and estrogen in a validated model of sex hormone regulation, estrogen-induced changes in ADCYAP1 and ADCYAP1R1 transcripts in the bed nucleus of stria terminalis (BNST) in female rats was examined. The BNST is a component of the extended amygdala that is subject to significant gonadal hormonal control. In rodents, it is critical for emotional behavior, mediating stress responses and the light-enhanced startle response. Quantitative PCR was performed (Hammack et al., Psychoneuroendocrinology 34, 833-43 (2009); Girard et al., J Neurochem 99(2): 499-513 (2006); Braas et al., Peptides September 28(9):1856-70 (2007)). Rats were implanted with 21-day continuous release pellets for delivery of estrogen. After rat euthanasia, the different brain regions were quickly dissected and frozen on dry ice. The tissues were homogenized in Stat-60 total RNA/mRNA isolation reagent (Tel-Test “B”, Friendswood, Tex.). […] Real-time quantitative PCR methods and oligonucleotide primers were exactly as described previously. The melting profiles for amplified DNA fragments were performed to verify unique product amplification in the quantitative PCR assays. […]

Another series deals with ADCYAP1R1 transcripts. Description: Quantitative PCR of ADCYAP1R1 transcripts in BNST of ovarectomized female rats after estradiol implants. The format is in vivo, rat. To be noted: OVX female rats, 21-day continuous release pellets, vs control implants.
Description: as §1

Series [1] relates to Sprague-Dawley rats. As to the kind of experiment: Elevated plus-maze after chronic BNST PACAP(6-38) infusion during repeated variate stress. The format is in vivo, rat. The protocol:
Similar procedures were followed for chronic infusions. Once the BNST cannulae (Plastics One, Roanoke, Va.; No. 328OP/SPC) and skullcap were in place, the cannulae were attached to a single bifurcation connector (Plastics One, Roanoke, Va.; No. 21y) using 3 mm catheter tubing (Alzet, Cupertino, Calif.: OC 1.14 mm, ID 0.69 mm). The bifurcation connector was attached to 6.7 cm of catheter tubing attached to a mini-osmotic pump (Alzet, Cupertino, Calif.; No. 2002, 200 μl volume, 0.5 μl/h) containing either antagonist PACAP(6-38) (American Peptide Co., Sunnyvale, Calif.; 75 μM) or vehicle (0.05% BSA in saline). Long term PACAP(6-38) stability at 37° C. was assessed separately by daily aliquot removal for intact and amidated peptide radioimmunoassays. Peptide loss was 4%/day; final minipump PACAP(6-38) concentration at the end of the study was approximately 40 μM. […] The rats were returned to their home cages for 6 day postsurgical recovery; all rats were monitored for food/water intake and weighed daily. […]
(§2) A plus maze of black painted wood and elevated 74 cm from the floor consisted of two opposing open and two opposing closed arms (each arm 60 cm long and 9 cm wide), which extended perpendicularly from a central square platform (9×9 cm). […] The sessions were captured digitally, and the time spent in the open and closed arms and the total number of crosses into the open arms were scored. […]

Series [2] relates to Sprague-Dawley rats. Description: Novel object exploration test after chronic BNST PACAP(6-38) infusion during repeated variate stress. The format is in vivo, rat. Conditions: for effect on stress induced anxiety-related responses, novel object test: chronic BNST infusion, stressed rats. The protocol: (§3) Similar procedures were followed for chronic infusions. Once the BNST cannulae (Plastics One, Roanoke, Va.; No. 328OP/SPC) and skullcap were in place, the cannulae were attached to a single bifurcation connector (Plastics One, Roanoke, Va.; No. 21y) using 3 mm catheter tubing (Alzet, Cupertino, Calif.: OC 1.14 mm, ID 0.69 mm). The bifurcation connector was attached to 6.7 cm of catheter tubing attached to a mini-osmotic pump (Alzet, Cupertino, Calif.; No. 2002, 200 μl volume, 0.5 μl/h) containing either antagonist PACAP(6-38) (American Peptide Co., Sunnyvale, Calif.; 75 μM) or vehicle (0.05% BSA in saline). Long term PACAP(6-38) stability at 37° C. was assessed separately by daily aliquot removal for intact and amidated peptide radioimmunoassays. Peptide loss was 4%/day; final minipump PACAP(6-38) concentration at the end of the study was approximately 40 μM. All catheters were filled with vehicle to delay antagonist infusion into the BNST before the repeated variate stress procedure. The minipumps were primed according to manufacturer's instructions and secured subcutaneously in the interscapular space. The rats were returned to their home cages for 6 day postsurgical recovery; all rats were monitored for food/water intake and weighed daily.
Following acclimation or postsurgery recovery, each animal was randomly assigned to either a control or chronically stressed group. Control group animals remained in their home cages until euthanasia. […]
To determine whether BNST PACAP receptor signaling mediates the behavioral consequences of repeated stress, osmotic minipumps were attached to bilateral indwelling cannulae to chronically infuse the BNST with PACAP(6-38), a PAC1 receptor antagonist, during the seven day repeated variate stress procedure (see above, FIG. 13A). Animal weight and food intake were monitored daily during the entire duration of the experiment, and the animals were evaluated on the elevated plus-maze and novel-object exploration tests 24-48 hours after the last stressor exposure. […]

The nature of series [3]: Body weight during chronic BNST PACAP(6-38) infusion and repeated variate stress. The format is in vivo, rat. The protocol: as §3, with “The minipumps were primed according to manufacturer's instructions and secured subcutaneously in the interscapular space.” left out, “daily. […]” for “daily.”
Weight data were analyzed using a 2×2×7 mixed ANOVA with stress and antagonist treatment as between subjects variables and percent weight change during the stress period as within subjects variables. […]

Series [4] in a line: Long term PACAP(6-38) stability at 37° C. by radioimmunoassay. The format is physicochemical. The protocol: as §3
Series [5] has as its system Sprague-Dawley rats. Description: Elevated plus maze after acute BNST PACAP38 infusion. The format is in vivo, rat. Conditions: BNST infusion 1 μg/0.5 μl vs vehicle.
Description: For acute infusion studies, rats were anesthetized with isoflurane vapor and secured in a stereotaxic apparatus. After skin incision, the skull was exposed and four screws were inserted to provide skullcap stability. Two stainless steel cannulae (26 gauge, Plastics One, Roanoke, Va.) were lowered at a 20 degree angle just above the anterolateral bed nucleus of the stria terminalis (BNST), from bregma in mm; AP=−0.3, ML=±3.8 and DV=−5.3 from the surface of the dura. A skullcap was created with dental cement to hold the cannulae in place. […]
as §2
To further characterize the behavioral consequences of BNST PACAP38 infusion, rats were implanted with bilateral cannulae targeted at the BNST. […] Consistent with an anxiogenic effect of BNST PACAP on baseline acoustic startle responding, BNST PACAP38 infusion was anxiogenic on the elevated-plus maze as measured by open arm time (FIG. 12A, df=8, t=3.3, p=0.01).

Series [6] is described as follows: Body weight after acute BNST PACAP38 infusion. It counts as in vivo, rat. To be noted: 24 hours after BNST infusion. From the text:
For acute infusion studies, rats were anesthetized with isoflurane vapor and secured in a stereotaxic apparatus. After skin incision, the skull was exposed and four screws were inserted to provide skullcap stability. Two stainless steel cannulae (26 gauge, Plastics One, Roanoke, Va.) were lowered at a 20 degree angle just above the anterolateral bed nucleus of the stria terminalis (BNST), from bregma in mm; AP=−0.3, ML=±3.8 and DV=−5.3 from the surface of the dura. A skullcap was created with dental cement to hold the cannulae in place. One week after cannulation, the rats were acutely infused bilaterally into the BNST with PACAP38 (American Peptide Co., Sunnyvale, Calif.; 0.1, 0.5 or 1 μg in 0.5 μl) or saline/bovine serum albumin (BSA) vehicle; the infusion cannulae were left in place for 1 min before removal.
To further characterize the behavioral consequences of BNST PACAP38 infusion, rats were implanted with bilateral cannulae targeted at the BNST. One week following implantation, rats received BNST infusions of PACAP38 (1 μg/0.5 μl) or vehicle, and were tested for anxiety-like responses. Consistent with an anxiogenic effect of BNST PACAP on baseline acoustic startle responding, BNST PACAP38 infusion was anxiogenic on the elevated-plus maze as measured by open arm time (FIG. 12A, df=8, t=3.3, p=0.01).

[7] abbreviates: chronic BNST infusion by minipump (75 μM, 0.5 μl/h), stressed and non-stressed rats.

“And” between values parts separate entries of the source, which are not always exact repeats. Equal entries are not always repeated. “Also recorded” adds a separate entry of the source. No end group written: not given here.

Regarding `C[C@]12CC[C@@H]3c4ccc(O)cc4CC[C@H]3[C@@H]1CC[C@@H]2O` [estradiol], in the series on ADCYAP1 transcripts, the “increase of ADCYAP1 transcripts, dorsal BNST” value turned out to be 2.1 fold and the “increase of ADCYAP1 transcripts, ventral BNST” value came to 3.4 fold. Besides, in the series with ADCYAP1R1 transcripts, the “increase of ADCYAP1R1 mRNA, dorsal BNST” value is 1.5 fold and 1.6 fold.

For the compound “Phe-Thr-Asp-Ser-Tyr-Ser-Arg-Tyr-Arg-Lys-Gln-Met-Ala-Val-Lys-Lys-Tyr-Leu-Ala-Ala-Val-Leu-Gly-Lys-Arg-Tyr-Lys-Gln-Arg-Val-Lys-Asn-Lys (FTDSYSRYRKQMAVKKYLAAVLGKRYKQRVKNK) [PACAP(6-38)]”, the “anxiety-like behavior on elevated plus maze” value with Sprague-Dawley rats [1] (setting [7]) is on record as “anxiolytic”. The “effect on stress induced anxiety-related responses, elevated plus-maze” value in the series on Sprague-Dawley rats [1] (chronic BNST infusion, stressed rats) was “attenuated the stress induced anxiety-related responses”. For the same compound, the “anxiety-like behavior on novel object test” value in the series on Sprague-Dawley rats [2] (setting [7]) is recorded as “anxiolytic”. Moreover, the “effect on stress induced anxiety-related responses, novel object test” value in the series with Sprague-Dawley rats [2] is “reverse the anxiogenic effect of stress”; in the series with Sprague-Dawley rats [2] (listed as PACAP receptor antagonist), “attenuated the stress induced anxiety-related responses”. Also, the “effect on body weight, non-stressed rats” value in series [3] (chronic BNST infusion, no stress) is “no apparent effects; also recorded: gained weight steadily”. In series [3] (continuous BNST infusion during seven day repeated variate stress), the “effect on weight gain, stressed rats” value is on record as “blocked the stress-induced changes in weight gain; also recorded: gained weight comparable to controls”. In addition, in series [4] (intact and amidated peptide radioimmunoassays), the Peptide loss is on record as 4 %/day. Moreover, the “final minipump concentration at the end of the study” value in series [4] (start 75 μM) is on record as “approximately 40 μM”.

For “PACAP38: 38-amino acid peptide form of PACAP (American Peptide Co.) (HSDGIFTDSYSRYRKQMAVKKYLAAVLGKRYKQRVKNK; ends and bridges not checked)”, in the series with Sprague-Dawley rats [5], the “anxiety-like behavior on elevated-plus maze as measured by open arm time” value was “anxiogenic; also recorded: decreased open arm times” and the “locomotor activity as measured by total number of arm entries” value is “not affected; also recorded: not changed”. In addition, the “weight loss compared to vehicle-infused rats” value in series [6] is “significantly more weight loss”. For the same compound, the weight loss result in series [6] (compared to vehicle controls) is given as “approximately 8 % of body weight”.
